The test system of assay [1] is Plasmodium falciparum. Briefly: Antimalarial activity against chloroquine-resistant Plasmodium falciparum W2 after 72 hrs by parasite lactate dehydrogenase assay. In kind it is functional, organism-based. To be noted: W2, 72 h.
Assay [2] deals with Plasmodium falciparum. Briefly: Antimalarial activity against chloroquine-sensitive Plasmodium falciparum D10 after 72 hrs by parasite lactate dehydrogenase assay. Type of assay: functional, organism-based. To be noted: D10, 72 h.

The results in this text go back to ChEMBL document CHEMBL3085636, “Further optimization of plakortin pharmacophore: structurally simple 4-oxymethyl-1,2-dioxanes with promising antimalarial activity” (Eur J Med Chem, 2013).

A word on the IC50: it is the concentration at which inhibition is half-maximal. High values mean lower potency, low ones higher potency. Consider `CCCC[C@@]1(OC)OOC(C)(C)C[C@@H]1CO`, for which the IC50 in assay [1] came out at 7300 nM; in assay [2] it was 17200 nM.

For `CCCC[C@]1(C)C[C@H](CO)[C@](CCCC)(OC)OO1`, the half-maximal inhibitory concentration (IC50) in assay [1] turned out to be 1900 nM; in assay [2] it was 5400 nM.

With `CCCC[C@@]1(C)C[C@H](CO)[C@](CCCC)(OC)OO1`, the half-inhibitory concentration (IC50) in assay [1] came out at 2300 nM; in assay [2], 6000 nM.

With `CCCC[C@]1(C)C[C@H](CO)[C@@](CCCC)(OC)OO1`, the figures for the IC50 in assay [1] and in assay [2] were 11200 nM and > 30000 nM, respectively.

As to `CCCCC1(CCCC)C[C@H](CO)[C@](CCCC)(OC)OO1`, the IC50 worked out at 1600 nM in assay [1] and 4000 nM in assay [2].

In the case of `CCCCC1(CCCC)C[C@H](CO)[C@@](CCCC)(OC)OO1`, the values for the IC50 in assay [1] and in assay [2] were 1000 nM and 2400 nM, respectively.

As for `COC[C@H]1CC(C)(C)OO[C@@]1(C)OC`, the half-maximal inhibitory concentration (IC50) in assay [1] and in assay [2] was > 30000 nM each time.

In the case of `COC[C@H]1CC(C)(C)OO[C@]1(C)OC`, the IC50 in assay [1] and in assay [2] was > 30000 nM in each case.

In the case of `CCCC[C@@]1(OC)OOC(C)(C)C[C@@H]1COC`, the IC50 in assay [1] worked out at 2800 nM; in assay [2] it was 8600 nM.

As to `CCCC[C@]1(OC)OOC(C)(C)C[C@@H]1COC`, the IC50 in assay [1] and in assay [2] was > 30000 nM throughout.

In assay [1], `CCCCC1(CCCC)C[C@H](COC)[C@](C)(OC)OO1` had an IC50 of 1700 nM.

`CCCCC1(CCCC)C[C@H](COC)[C@@](C)(OC)OO1` displayed an IC50 in assay [1] of 1500 nM.

Turning to `CCCC[C@]1(C)C[C@H](COC)[C@](CCCC)(OC)OO1`, the figures for the IC50 in assay [1] and in assay [2] were 500 nM and 800 nM, respectively.

For `CCCC[C@@]1(C)C[C@H](COC)[C@](CCCC)(OC)OO1`, the values for the IC50 in assay [1] and in assay [2] were 700 nM and 900 nM, respectively.

On to `CCCC[C@]1(C)C[C@H](COC)[C@@](CCCC)(OC)OO1`, for which the IC50 amounted to 2000 nM in assay [1] and 4300 nM in assay [2].

Take `CCCC[C@@]1(C)C[C@H](COC)[C@@](CCCC)(OC)OO1`: the IC50 was 1200 nM in assay [1] and 2300 nM in assay [2].

Compound `CCCCC1(CCCC)C[C@H](COC)[C@](CCCC)(OC)OO1` showed an IC50 in assay [1] of 700 nM.

On to `CCCCC1(CCCC)C[C@H](COC)[C@@](CCCC)(OC)OO1`, for which, in assay [1], the IC50 came out at 1000 nM.
